One compound from ChEMBL document CHEMBL5120927, “LEGO-Lipophosphonoxins: A Novel Approach in Designing Membrane Targeting Antimicrobials” (J Med Chem, 2022) can be followed below.

Activity calls are given as the source filed them. The rule behind the calls is not given here.

Data set [1] is described as follows: Cytotoxicity against human HepG2 cells assessed as reduction in cell viability. The data set is classed as toxicity, cell-based.
In data set [2] the test system is Staphylococcus aureus. Nature of the data set: Antibacterial activity against wild type Staphylococcus aureus 4504/A assessed as reduction in microbial growth incubated for 24 hrs by microdilution assay. The data set is classed as functional.
The test system of data set [3] is Staphylococcus aureus. Nature of the data set: Antibacterial activity against […] Staphylococcus aureus 4463/A assessed as reduction in microbial growth incubated for 24 hrs by microdilution assay. The class given is functional. (Broth dilution looks for growth in wells or tubes with falling amounts of substance.)
In a further data set the test system is Enterococcus faecium. Nature of the data set: Antibacterial activity against vancomycin resistant Enterococcus faecium 419/ANA assessed as reduction in microbial growth incubated for 24 hrs by microdilution assay. The class given is functional.
Data set [4] has as its system Staphylococcus aureus. Put plainly: Antibacterial activity against wild type Staphylococcus aureus 5079/C assessed as reduction in microbial growth incubated for 24 hrs by microdilution assay. The class given is functional.
Data set [5] concerns Staphylococcus aureus. Nature of the data set: Antibacterial activity against wild type Staphylococcus aureus 4502/A assessed as reduction in microbial growth incubated for 24 hrs by microdilution assay. The data set is classed as functional.
Data set [6] deals with Staphylococcus aureus. Put plainly: Antibacterial activity against wild type Staphylococcus aureus 4717/B assessed as reduction in microbial growth incubated for 24 hrs by microdilution assay. The class given is functional.
A further data set deals with Pseudomonas aeruginosa. Put plainly: Antibacterial activity against Pseudomonas aeruginosa assessed as reduction in microbial growth measured after 20 cycles by microdilution assay. The data set is classed as functional. As to conditions: time 24 hrs.
The test system of data set [7] is Staphylococcus aureus. Nature of the data set: microbe, parasite or virus in culture. The note with it: 5017/C, 24 h.
Description: Antibacterial activity against wild type Staphylococcus aureus 5017/C assessed as reduction in microbial growth incubated for 24 hrs by microdilution assay
The test system of another data set is Cell membrane. Nature of the data set: Induction of cell envelope damage in Staphylococcus aureus assessed as membranous nanotubes extrude from dying/dead cells at 8 mg/L measured after 8 hrs by scanning electron microscope analysis.
Data set [8] concerns Staphylococcus aureus. Put plainly: Antibacterial activity against methicillin resistant Staphylococcus aureus 4591/A assessed as reduction in microbial growth incubated for 24 hrs by microdilution assay. The data set is classed as functional.
Data set [9] deals with Staphylococcus aureus. Nature of the data set: Antibacterial activity against wild type Staphylococcus aureus 4566/A assessed as reduction in microbial growth incubated for 24 hrs by microdilution assay. The data set is classed as functional.
The subject of another data set is Enterococcus faecalis. Put plainly: Antibacterial activity against Enterococcus faecalis ATCC 29212 = CCM 4224 assessed as inhibition of bacterial growth incubated for 24 hrs by microdilution assay. The data set is classed as functional.
Data set [10] relates to Staphylococcus aureus. Nature of the data set: Antibacterial activity against wild type Staphylococcus aureus 4557/A assessed as reduction in microbial growth incubated for 24 hrs by microdilution assay. The class given is functional.

`CCCCCCCCOP(=O)(CCN(CCCN)CCCN)OCCCCCCOP(=O)(CCN(CCCN)CCCN)OCCCCCCCC.Cl.Cl.Cl.Cl.Cl.Cl` (centres undefined): the CC50 in data set [1] stood at 33.1 µM. Moreover, the MIC in the data set with Staphylococcus aureus [2] is 0.5 µg/mL; in the data set with Staphylococcus aureus [3] it was 1 µg/mL; in the data set on Enterococcus faecium it was 8 µg/mL; in the data set with Staphylococcus aureus [4] it was 0.5 µg/mL; in the data set on Staphylococcus aureus [5], 1 µg/mL; in the data set on Staphylococcus aureus [6], 0.5 µg/mL. Further, the MIC came out at 0.5 µg/mL in the data set on Staphylococcus aureus [7]; 1 µg/mL with Staphylococcus aureus [8]; 0.5 µg/mL in the data set with Staphylococcus aureus [9]; 1 µg/mL in the data set with Enterococcus faecalis; 0.5 µg/mL in the data set with Staphylococcus aureus [10]. Moreover, in the data set on Pseudomonas aeruginosa, the “fold change (FC)” value was determined as 32. Besides, the outcome with Cell membrane was Active.

The term CC50 denotes the concentration at which the toxic effect on the cells reaches its halfway point.
